In US8653046B2, “Controlling transgene expression across the skin” (ETH Zurich, priority 2009, dated 2014):

Experiments:
CHO-K1 = assay: Impact of phloretin on CHO-K1 engineered for constitutive SEAP expression (SEAP production, viable cell density); format: cell-based, Chinese hamster; settings: 48 h
Method: CHO-K1 engineered for constitutive SEAP expression are cultivated in culture medium supplemented with different phloretin concentrations (0-100 μM) and SEAP production (bars) as well as maximum cell density are assessed after 48 h (line). Abbreviations: C.D.: Cell Density (10^6/mL); Phl.: Phloretin (μM)
To evaluate the stability of phloretin in culture medium and assess its impact on mammalian cells, standard ChoMaster® HTS medium is supplemented with increasing concentrations of phloretin (0, 25, 50, 75, 100 μM), and this medium is incubated in the presence and absence of CHO-K1 engineered for constitutive SEAP expression (pSEAP2-Control; PSV40-SEAP-pA, Clontech). […] Phloretin levels determined over a period of 64 h in cell-free culture medium establish a functional half-live of 70 h for this flavonoid.

TtgA1 (TtgR-VP16) = TtgA1 (TtgR-VP16) (Pseudomonas putida, UniProt Q9AIU0); assay: PEACE: SEAP expression after transient co-transfection of pMG10 (PTtgR1-SEAP-pA) and pMG11 (PSV40-TtgA1-pA); format: cell-based; parameters: key to SEAP Production: ^a): Undetectable; settings: 48 h
Sequence of TtgA1 (TtgR-VP16) (Q9AIU0 whole entry, added parts left off): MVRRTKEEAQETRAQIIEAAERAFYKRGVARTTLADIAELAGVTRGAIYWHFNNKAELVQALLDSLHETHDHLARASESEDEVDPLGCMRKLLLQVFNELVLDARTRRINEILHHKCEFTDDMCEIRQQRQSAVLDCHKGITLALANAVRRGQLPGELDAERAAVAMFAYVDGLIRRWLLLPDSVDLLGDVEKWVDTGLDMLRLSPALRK
From the text: Living in the plant rhizosphere, Pseudomonas putida DOT-T1E has evolved resistance to a variety of plant-derived antimicrobials, which is triggered by phloretin-induced release of TtgR protein from the operator (OTtgR) of its target promoter and subsequent induction of a broadly specific TtgABC efflux pump (Teran W. et al., loc. cit.).
Three different transactivators are designed, harboring either the VP16 (TtgA1; pMG11, TtgR-VP16) (Triezenberg S. J. et al., loc. cit.), the p65 (TtgA2; pMG18, TtgR-p65) (Urlinger S., et al., 2000, Gene 247(1-2):103-110) or the human E2F4 (TtgA3; pMG19, TtgR-E2F4) (Akagi K., Kanai M., Saya H., Kozu T., Berns A., 2001, Nucleic Acids Res 29(4):e23) transactivation domains. pMG11, pMG18 or pMG19 are co-transfected with pMG10 (PTtgR1-SEAP-pA) into CHO-K1, HEK-293 as well as primary human fibroblasts and keratinocytes, and SEAP expression is profiled after 48 h of cultivation in the presence or absence of 50 μM phloretin.
CHO-K1 are transiently (co-)transfected with either pMG10 (PTtgR1-SEAP-pA) and pMG11 (PSV40-TtgA1-pA), to score regulation performance, or with pSEAP2-Control (PSV40-SEAP-pA), to assess compound-related cytotoxicity, and then cultivated for 48 h in medium containing different concentrations (0, 25, 50 μM) of specific flavonoid type compounds (berberine, butylparaben, genistein, luteolin, β-naphthol, naringenin, phloretin, phloridzin or quercetin) before SEAP production is profiled (FIG. 5A).
Wild-type Chinese hamster ovary cells (CHO-K1, ATCC: CCL-61) and their derivatives are cultivated in standard medium: ChoMaster® HTS (Cell Culture Technologies, Gravesano, Switzerland) supplemented with 5% (v/v) fetal calf serum (FCS, PAN Biotech GmbH, Aidenbach, Germany, Cat. No. 3302, Lot No. P251110) and 1% (v/v) penicillin/streptomycin solution (Sigma, St Louis, Mo., USA, Cat. No. P4458). Human embryonic kidney cells (HEK-293, Mitta B., et al., 2002, Nucleic Acids Res 30(21):e113), African green monkey kidney cells (COS-7, ATCC: CRL-1651), baby hamster kidney cells (BHK-21, ATCC: CCL10), human fibrosarcoma cells (HT-1080, ATCC: CCL-121), the human keratinocyte cell line HaCaT (Boukamp P., et al., 1988, J Cell Biol 106(3):761-771) and mouse fibroblasts (NIH/3T3, ATCC: CRL-1658) are cultured in Dulbecco's modified Eagle's medium (DMEM; Invitrogen, Cat. No. 52100-39) supplemented with 10% FCS (v/v) and 1% (v/v) penicillin/streptomycin solution. Primary human foreskin fibroblasts are cultivated in DMEM supplemented with 20% FCS (v/v) and 1% (v/v) penicillin/streptomycin solution and primary human foreskin keratinocytes are cultured in chemically defined serum-free keratinocyte medium (Invitrogen, Cat. No. 10744019). All cell types are cultivated at 37° C. in a 5% CO2-containing humidified atmosphere.

O=C(CCc1ccc(O)cc1)c1c(O)cc(O)cc1O [phloretin, 3-[4-hydroxyphenyl]-1-[2,4,6-trihydroxyphenyl]-1-propanone]
impact on heterologous protein (SEAP) production (CHO-K1; CHO-K1 constitutive SEAP (pSEAP2-Control), phloretin 0, 25, 50, 75, 100 μM): no negative impact on heterologous protein production | viable cell density / CHO-K1 proliferation (CHO-K1; phloretin up to 100 μM): does not compromise CHO-K1 proliferation | SEAP Production (TtgA1 (TtgR-VP16); BHK-21, 50 μM Phloretin): 1.5 ± 0.2 U/L | PEACE regulation performance (SEAP production) (TtgA1 (TtgR-VP16); CHO-K1, 0, 25, 50 μM): full transgene repression | SEAP expression dose response (TtgA1 (TtgR-VP16); CHO-K1, phloretin 0-70 μM): dose-dependent reduction of SEAP expression up to complete repression | SEAP Production (TtgA1 (TtgR-VP16); CHO-K1, phloretin 50 μM): 0.2 ± 0.016 U/L | SEAP Production (TtgA1 (TtgR-VP16); COS-7, 50 μM Phloretin): * | SEAP Production (TtgA1 (TtgR-VP16); HEK-293, 50 μM Phloretin): 0.2 ± 0.04 U/L | SEAP Production (TtgA1 (TtgR-VP16); HEK-293, phloretin 50 μM): 0.2 ± 0.04 U/L | SEAP Production (TtgA1 (TtgR-VP16); HT-1080, 50 μM Phloretin): * | SEAP Production (TtgA1 (TtgR-VP16); HaCaT, 50 μM Phloretin): * | SEAP Production (TtgA1 (TtgR-VP16); NIH/3T3, 50 μM Phloretin): * | SEAP Production (TtgA1 (TtgR-VP16); Primary human fibroblasts, 50 μM Phloretin): * | SEAP Production (TtgA1 (TtgR-VP16); Primary human keratinocytes, 50 μM Phloretin): *
